PubChem BioAssay (NCI)
“And” between values parts separate entries of the source, which are not always exact repeats. Equal values may be shown once.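 Values below derive from 48-hour exposures of cells grown in 96-well plates, with endpoints linearly interpolated between the two concentrations bracketing the appropriate inhibition level. GI50: concentration for 50% inhibition of growth. The concentration for full growth arrest is given as TGI.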

Tests used:
Experiment in all cases: growth of human tumour cells (NCI), 48 h
DU-145 prostate = system: DU-145 prostate
MCF7 breast = system: MCF7 breast
MDA-MB-231 breast = system: MDA-MB-231 breast
MOLT-4 leukemia = system: MOLT-4 leukemia
RXF 393 renal = system: RXF 393 renal
SF-268 CNS = system: SF-268 CNS
SF-295 CNS = system: SF-295 CNS
UO-31 renal = system: UO-31 renal
DLD-1 colon = system: DLD-1 colon
DMS 114 small cell lung = system: DMS 114 small cell lung
LXFL 529 NSCLC = system: LXFL 529 NSCLC
XF 498 CNS = system: XF 498 CNS

SMILES	TGI (DU-145 prostate)	TGI (MCF7 breast)	TGI (MDA-MB-231 breast)	TGI (MOLT-4 leukemia)	TGI (RXF 393 renal)	TGI (SF-268 CNS)	TGI (SF-295 CNS)	TGI (UO-31 renal)	TGI (DLD-1 colon)	TGI (DMS 114 small cell lung)	TGI (LXFL 529 NSCLC)	TGI (XF 498 CNS)	GI50 (MOLT-4 leukemia)	GI50 (RXF 393 renal)	GI50 (MDA-MB-231 breast)
CC(C)(C)C1CC[C@H](O)[C@H]([C@H](O)CC2CC(=O)N(c3ccccc3)C(=O)C2)C1 (stereo partly specified)	> 100 µM	> 100 µM	> 100 µM	> 100 µM	> 100 µM	> 100 µM	> 100 µM	> 100 µM	–	–	–	–	–	–	–
CC1(C2CCC3(C)OC3C2)CO1 (stereo unspecified)	–	–	–	> 100 µM	> 100 µM	> 100 µM	> 100 µM	> 100 µM	> 100 µM	> 100 µM	> 100 µM	> 100 µM	–	–	–
CCOC(=O)C1CCCCN1CCc1c[nH]c2ccccc12 (stereo unspecified)	> 100 µM	> 100 µM	> 100 µM	> 100 µM	> 100 µM	> 100 µM	> 100 µM	> 100 µM	–	–	–	–	–	–	–
O=C(CC1Sc2ccccc2NC1=O)Nc1ccc(Cl)cc1 (stereo unspecified)	–	–	–	> 100 µM	67.2 µM	> 100 µM	> 100 µM	> 100 µM	> 100 µM	> 100 µM	> 100 µM	> 100 µM	–	–	–
Cc1ccc(S(=O)(=O)n2cc(C#N)c(C#N)c2)cc1	> 100 µM	48.2 µM	> 100 µM	> 100 µM	94.3 µM	69.2 µM	61.6 µM	72.2 µM	–	–	–	–	–	–	–
CCOC(=O)C1(C(F)(F)F)N=C(CC)OC(N2CCOCC2)=N1 (stereo unspecified)	> 100 µM	> 100 µM	> 100 µM	> 100 µM	> 100 µM	> 100 µM	> 100 µM	> 100 µM	–	–	–	–	–	–	–
O=C1C=CC(=O)c2c(O)c(N3CCN(CCOCCO)CC3)c(Cl)c(O)c21	3.31 µM [middle of 4 runs]	–	–	0.837 µM and 0.175 µM	0.422 µM and 1.1 µM and 2.96 µM	–	–	–	0.401 µM	–	0.45 µM	1.88 µM	97 nM and 33.1 nM	192 nM and 344 nM and 1350 nM	–
CO[C@H]1C[C@H](O[C@H]2CC[C@]3(C=O)[C@H]4CC[C@]5(C)[C@@H](C6=CC(=O)OC6)CC[C@]5(O)[C@@H]4CC[C@]3(O)C2)O[C@H](C)[C@H]1O	0.462 µM	13.1 µM	5.34 µM	2.89 µM	0.189 µM	0.577 µM	0.671 µM	2.53 µM	–	–	–	–	–	–	–
Cn1c2ccccc2n2c3ncccc3c(=S)c(C#N)c12	> 100 µM	> 100 µM	> 100 µM	> 100 µM	> 100 µM	> 100 µM	> 100 µM	> 100 µM	–	–	–	–	–	–	–
C/C(Nc1ccc(Cl)cc1Cl)=C1/CCOC1=O	> 100 µM	> 100 µM	46.3 µM	> 100 µM	39.8 µM	92.8 µM	54 µM	> 100 µM	–	–	–	–	–	–	–
O=C(/C=C/c1cccs1)c1ccccc1Cl	26.4 µM	18.2 µM	> 54.4 µM	> 23.4 µM	23.7 µM	26.4 µM	36.2 µM	17.2 µM	–	–	–	–	–	–	–
N#Cc1nc(C#N)n(C(=O)c2ccccc2)c1NC(=O)c1ccccc1	> 100 µM	> 100 µM	> 100 µM	> 100 µM	> 100 µM	> 100 µM	> 100 µM	> 100 µM	–	–	–	–	–	–	–
CN(C)C(=S)Oc1ccc2ccc(=O)oc2c1	> 100 µM	> 100 µM	> 100 µM	> 100 µM	> 100 µM	> 100 µM	> 100 µM	> 100 µM	–	–	–	–	–	–	–
N/C(=N\Nc1ccc(S(N)(=O)=O)cc1)c1cnccn1	> 100 µM	> 100 µM	> 100 µM	> 100 µM	> 100 µM	> 100 µM	> 100 µM	> 100 µM	–	–	–	–	–	–	–
CCOP(=O)(OCC)C(C)(CC)NC(=O)C(C(F)(F)F)C(F)(F)F (stereo unspecified)	> 100 µM	> 100 µM	> 100 µM	> 100 µM	> 100 µM	> 100 µM	> 100 µM	> 100 µM	–	–	–	–	–	–	> 100 µM
NCCC1CN(C(=O)OCc2ccccc2)c2ccccc21 (stereo unspecified)	48.9 µM	22.9 µM	46.6 µM	52.1 µM	32.3 µM	39.4 µM	40.3 µM	27.3 µM	–	–	–	–	–	–	–
